# Values quoted from earlier work in patent US6048878A, “Substituted piperidine derivatives as selective agonists of 5-HT receptors” (Merck Sharp & Dohme Ltd., priority 1995, dated 2000).
# Columns and labels:
# [1] = therapeutic doses
# [2] = system: human 5-HT1D.sbsb.α and 5-HT1D.sbsb.β receptor subtypes; settings: cf. WO-A-91/17174, Table 1
compound,measurement,setting,value
CNS(=O)(=O)Cc1ccc2[nH]cc(CCN(C)C)c2c1 [sumatriptan],adverse cardiovascular events in humans,[1],certain adverse cardiovascular events
same,discrimination between the human 5-HT1D.sbsb.α and 5-HT1D.sbsb.β receptor subtypes,[2],barely discriminates
